Source: patent US6159733A, “Method for photoinactivating malignant cells” (priority 1996, dated 2000)
“Also recorded” adds a separate entry of the source. Read-outs that look alike come from different tables or passages of the source.

Legend:
Type in all cases: cell-based, murine
[1] = Photosensitivity of committed BM progenitors, colony forming assay; details: mouse
Source text: (§1) Animals. C57B1/6 (Ly-5.2) and B6SJ-cd45 ^b pep 3^b /BOY J (Ly-5.1), were obtained from The Jackson Laboratories (Bar Harbor, Me.) and were maintained in the animal facility of the New York Blood Center. After gamma-irradiation, the animals were housed in microisolator cages and provided with autoclaved food and autoclaved acidified water (pH=3) ad libitum. Preparation of bone marrow cell suspensions--Ly-5.1 mice were used as the source of donor BM. Mice (8-10 weeks old) were killed and the BM was harvested by flushing the femoral shafts with Hank's balanced salt solution (HBSS), pH 7.4. The cell suspensions were centrifuged, washed once and the cells were finally resuspended in HBSS--10% vol/vol fetal bovine serum (FBS, Gemini Bioproducts Inc., Calabasas, Calif.).
(§2) Photosensitization. Aliquots of a 1.87 mM Pc 4 (kindly provided by Dr. M. E. Kenney) stock solution in dimethyl sulfoxide were kept at -80° C. in autoclaved brown glass vials. Immediately prior to the photosensitization, Pc4 was thawed and diluted in dimethyl formamide to yield a 10 μM working solution. […] Pc 4 was used at 15 nM throughout the experiments.
(§3) BM and cell line samples, were incubated with 15 nM Pc 4 for two hours at 37° C. at cell concentrations of 1.5×10^7 cells/mL. Aliquots of 1.5 mL were transferred to 24-well plates; separate plates were used for each sample.
(§4) In a second set of experiments, the cells were incubated with 15 nM Pc 4 at cell concentrations of 1.5×10^6 cells/mL. Prior to photoirradiation, the samples were centrifuged and the supernatants were aspirated and set aside. The cell concentrations were adjusted to 1.5×10^7 cells/mL by adding back an appropriate volume of the Pc 4 containing aspirates.
(§5) Photoinactivation. The light source used was a filtered xenon short arc lamp (Versa-Light, Model UV-R6G, Medic Lightech, Ltd., Haifa, Israel). It was used to deliver red light (λ 600-700 nm) to the sensitized cells. After a 20 minute warm up period of the instrument, the distance from the light source to the bottom of the 24-well plate was adjusted to obtain a fluence rate of 26.6 mW/cm^2, as measured with a radiometer (Model IL 1350, International Light, Newburyport, Mass.). Samples were placed under the light source and were stirred during the irradiations. Before and after the irradiations, samples were kept in the dark.
(§6) Colony forming assays. BM samples were plated (in duplicate) in a semi-solid medium that contained IMDM (GibcoBRL), supplemented with 30% vol/vol FBS, 0.15% wt/vol deionized bovine serum albumin (Migliaccio, G., et al. Brit. J. Haematol. 67:129 (1987)) (Sigma, St. Louis, Mo.), 0.8% wt/vol methylcellulose, 75 μM β-mercaptoethanol (Sigma), antibiotics (100 U/mL penicillin, […], […] fungizone, GibcoBRL) and a cocktail of growth factors including: murine interleukin-3 (1% vol/vol COS-cell-derived supernatant, gift from Dr. K. Kaushansky), murine granulocyte-macrophage colony stimulating factor (1% vol/vol COS-cell-derived supernatant, gift from Dr. K. Kaushansky), recombinant human interleukin-11 (16 U/mL, gift from Genetics Institute, Cambridge, Mass.), recombinant rat stem cell factor (100 ng/mL), granulocyte colony stimulating factor (10 ng/mL), recombinant human erythropoietin (20 ng/mL, gifts from Amgen, Thousand Oaks, Calif.), and 800 U/mL murine thrombopoietin (800 U/mL, gift from Zymonetics, Seattle, Wash.). The samples were incubated at 37° C. in a humidified 5% CO2 -incubator and megakaryocyte colony forming units (CFU-Mk) were counted after 5 days. Blast forming units-erythroid (BFU-E), CFU-GM and mixed colonies (CFU-Mix) were counted after seven days.
(§7) Statistics. All assays were performed in triplicate unless mentioned otherwise. Data are expressed as mean values±standard error of the mean (SEM). Survival data are presented as surviving fractions relative to the surviving fractions of the untreated controls. […]

[2] = tested on: BFU-E; test: as above; details: 15 nM, 1.5×10^6 cells/mL
Source text: as §1, §2, §3, §4, §5, §6, §7

[3] = tested on: CFU-GM; test: as above; details: 15 nM, 1.5×10^6 cells/mL
Source text: as §1, §2, §3, §4, §5, §6, §7

[4] = tested on: CFU-Mix; test: as above; details: 15 nM, 1.5×10^6 cells/mL
Source text: as §1, §2, §3, §4, §5, §6, §7

[5] = tested on: CFU-Mk; test: as above; details: 15 nM, 1.5×10^6 cells/mL
Source text: as §1, §2, §3, §4, §5, §6, §7

[6] = tested on: committed BM progenitor cells; test: as above
Source text: as §1, §2, §3, §4, §5, §6, §7

[7] = Photosensitivity of pluripotent stem cells, cobblestone area forming cell (CAFC) assay; details: mouse, bone marrow stem cells, 15 nM
Source text: as §1, §2, §3, §4, §5
(§8) Cobblestone area forming cell assay. FBMD-1 stromal cells (gift from Dr. Ploemacher) were cultured at 33° C. in a humidified 5% CO2 -incubator in DMEM supplemented with 3.5 mM HEPES, 2 mM glutaMax (GibcoBRL), 10^-7 M sodium selenite, 10^-4 M β-mercaptoethanol, 10% vol/vol fetal calf serum (Gemini Bioproducts, Inc.), 5% vol/vol horse serum and 10^-5 M hydrocortisone 21-hemisuccinate (Breems, D. A., et al. Leukemia 8:1095 (1994); Van der Loo, J. C. M., et al. Blood 85:2598 (1995)). Prior to each experiment, FBMD-1 cells were harvested from log-phase cultures and fresh layers were prepared by seeding 1,000 cells into individual wells of 96-well flat bottom plates. These plates had been incubated overnight with 0.2% (wt/vol) gelatin to improve adherence of the stromal layer. The outer wells of the plates were filled with 100 μL 0.1 N NaOH to reduce infection.
(§9) The FBDM-1 layers were overlaid with the bone marrow samples in a limiting dilution setup; the first wells receiving 180,000-300,000 cells (Breems, D. A., et al., supra). Ten dilutions 2-fold apart were used for each sample with 18 replicate wells per dilution. The cells were cultured at 33° C. in a humidified 5% CO2 -incubator. For each sample, the fraction of wells with at least one phase-dark hematopoietic clone of at least five cells (cobblestone area) was determined weekly and cobblestone area forming cell frequencies (CAFC) were calculated using the dedicated Poison statistics program LimDil (kindly provided by Dr. Jan Hendrikx). After counting, 100 μL medium was removed from the wells and replaced with 100 μL fresh medium.
(§10) Statistics. […]

[8] = tested on: pluripotent stem cells; test: as above
Source text: as §1, §2, §3, §4, §5, §8, §9, §10

Structure (SMILES): CN(C)CCC[Si](C)(C)O[Si]1(O)n2c3c4ccccc4c2N=C2N=C(N=c4c5ccccc5c(n41)=NC1=NC(=N3)c3ccccc31)c1ccccc12 (stereo not shown) [Pc 4, hydroxysiloxy-dimethylpropyl-N-dimethyl silicon phthalocyanine]
- cytotoxicity at 0.015 µM ([1]; bone marrow cfu-gm, 15 nM Pc 4, murine BM, read-out: losses of CFU-GM on incubation): 0 to 15%
- viability at 0.015 µM ([1]; bone marrow progenitors, 15 nM, 1.5×10^7 cells/mL, 18 J/cm^2, read-out: surviving fraction (colony forming ability relative to untreated controls)): < 0.3%
- fluence for photoinactivation to below the detection levels [2]: 3 J/cm^2
- fluence for photoinactivation to below the detection levels [3]: 6 J/cm^2
- fluence for photoinactivation to below the detection levels [4]: 3 J/cm^2
- fluence for photoinactivation to below the detection levels [5]: 6 J/cm^2
- photosensitivity of all committed progenitor subsets ([6]; 15 nM, 1.5×10^7 cells/mL, 3 J/cm^2): resistant
- loss of committed progenitor cells ([6]; Pc 4, 18 J/cm^2): 2-3 logs
- viability at 672 h, 0.015 µM ([7]; 1.5×10^6 cells/mL, 3 J/cm^2, two values, read-out: relative CAFC day 28 frequency): 1.8%
- viability at 672 h, 0.015 µM ([7]; 1.5×10^7 cells/mL, 18 J/cm^2, two assays (p=0.69, p=0.78), read-out: relative CAFC frequency on day 28): 91%
- relative CAFC day 28 frequency ([8]; 15 nM, 1.5×10^6 cells/mL, 3 J/cm^2, two values, 40320 min, 0.015 µM): < 0.014
- CAFC frequency compared with untreated samples ([8]; 15 nM, 1.5×10^7 cells/mL, 6 J/cm^2 (p=0.58)): not significantly lower
- CAFC frequency compared with untreated samples ([8]; 15 nM, 1.5×10^7 cells/mL, 12 J/cm^2 (p=0.40)): not significantly lower
- CAFC frequency compared with untreated samples ([8]; 15 nM, 1.5×10^7 cells/mL, 18 J/cm^2 (p=0.26)): not significantly lower
- relative CAFC frequency on day 28 ([8]; 15 nM, 1.5×10^7 cells/mL, 18 J/cm^2, two assays (p=0.69, p=0.78), 40320 min, 0.015 µM): 0.92
- effect on CAFC frequencies / pluripotent stem cells ([8]; 15 nM, 1.5×10^7 cells/mL, after irradiation): not affected after irradiation; also recorded: not damaged
- photoinactivation of the stem cells (CAFC) ([8]; 1.5×10^6 cells/mL): approximately 2 log10
- comparison with MC 540 ([8]; 1.5×10^7 cells/mL, vs Sieber (1987)): compared favorable to MC 540
- sensitivity of c-kit^+,Sca-1^+ BM fraction to photoinactivation ([8]; relative to other cell types): least sensitive
